From US20070160725A1, “Use of extracts and compounds of allium-genus plants as preservatives in the food and agri-food industries” (MOUSALA, S., L., priority 2004, published 2007)
Where “and” joins values, the source holds several entries; their conditions need not be identical. Equal entries are not always repeated.

Columns and labels:
[1] = tested on: Mucor plumbeus, isolated from cheese; test: agar diffusion, inhibition halo; assay type: cell-based
Experimental: (§1) In order to evaluate the antimicrobial activity the agar diffusion technique with cellulose discs of 6 mm in diameter impregnated with the different active ingredient testing doses was used.
(§2) Antifungal capacity was assessed against suspensions of […], harvested from pure cultures of the selected molds and against suspensions of 10^7 cells/ml for the case of yeasts. The culture medium used was the 2% Sabouraud-glucose medium (Merck).
(§3) After incubating the culture dishes inoculated with the different organisms at the corresponding temperatures, the microbial inhibition halos that appeared were measured, and said measurement includes the 6 mm diameter of the cellulose discs.

[2] = tested on: Penicillium italicum CECT 2294; test: agar diffusion, inhibition halo; assay type: cell-based; conditions: Penicillium italicum; for zone of inhibition at 1000 ppm: CECT2294, read-out: inhibition halo diameter
Experimental: as §1, §2, §3

[3] = tested on: Staphylococcus aureus, isolated from hamburgers; test: agar diffusion, inhibition halo; assay type: cell-based
Experimental: as §1
(§4) Antibacterial capacity was assessed against suspensions of 10^6 cells/ml, prepared from pure young cultures of each one of the strains to be tested. The culture medium used was Müller-Hinton medium (Merck).
as §3

[4] = tested on: Bacillus subtilis, isolated from paprika; test: agar diffusion, inhibition halo; assay type: cell-based; conditions: 1000 ppm
Experimental: as §1, §4, §3

[5] = tested on: Salmonella typhimurium, ATCC 13311; test: agar diffusion, inhibition halo; assay type: cell-based
Experimental: as §1, §4, §3

[6] = tested on: Pullularia pullulans, CECT 2657; test: agar diffusion, inhibition halo; assay type: cell-based
Experimental: as §1, §2, §3

[7] = tested on: Geotrichum candidum CECT 1902; test: agar diffusion, inhibition halo; assay type: cell-based
Experimental: as §1, §2, §3

[8] = tested on: Saccharomyces cerevisiae, CECT 1324; test: agar diffusion, inhibition halo; assay type: cell-based
Experimental: as §1, §2, §3

[9] = tested on: Penicillium funiculosum, CECT 2702; test: agar diffusion, inhibition halo; assay type: cell-based
Experimental: as §1, §2, §3

[10] = tested on: Candida albicans, ATCC 10231; test: agar diffusion, inhibition halo; assay type: cell-based
Experimental: as §1, §2, §3

[11] = tested on: Penicillium sp, isolated from cheese; test: agar diffusion, inhibition halo; assay type: cell-based
Experimental: as §1, §2, §3

[12] = tested on: Trichoderma viride, CECT 2460; test: agar diffusion, inhibition halo; assay type: cell-based
Experimental: as §1, §2, §3

[13] = tested on: Aspergillus niger, CECT 2700; test: agar diffusion, inhibition halo; assay type: cell-based
Experimental: as §1, §2, §3

[14] = tested on: Aspergillus terreus, isolated from the environment of the cheese maturation chamber; test: agar diffusion, inhibition halo; assay type: cell-based
Experimental: as §1, §2, §3

[15] = tested on: mold; test: preserving activity on the surface of sausages (large intestine chorizo and spiced sausage); conditions: intestines submerged in a pimaricin solution at 500 ppm for 3 hours before stuffing
Experimental: (§5) These tests were carried out according to the instructions for applying said commercial preparations on foods by immersion, such as spiced sausage, chorizo, cheese, etc. (see application examples), with different antimicrobial product doses.
Preparing sample 1: First a series of pig large intestines are submerged in a dispersion of pimaricin in water, 500 ppm, for three hours. Then two pieces are stuffed with 600 g each.
Then 4 other pieces are stuffed with 600 g each and are treated as follows: • Control sample: two pieces are left untreated. • Sample 2: Two pieces are submerged for 2 minutes in a dispersion of sucrose esters in water (10-40 g/kg of water), with a concentration of 3000 ppm of PTS.
All the pieces are subjected to drying between 24 and 26° C. and 90% relative humidity for 72 hours. Then they are hung and left to cure. The external appearance is monitored and the following results are obtained: […]

[16] = tested on: Proteus vulgaris, ATCC 13315; test: agar diffusion, inhibition halo; assay type: cell-based
Experimental: as §1, §4, §3

[17] = tested on: Bacillus cereus, CECT 1178; test: agar diffusion, inhibition halo; assay type: cell-based
Experimental: as §1, §4, §3

[18] = tested on: Pseudomonas aeruginosa, ATCC 13925; test: agar diffusion, inhibition halo; assay type: cell-based
Experimental: as §1, §4, §3

[19] = tested on: Micrococcus luteus, isolated from a spiced sausage; test: agar diffusion, inhibition halo; assay type: cell-based
Experimental: as §1, §4, §3

[20] = tested on: Streptococcus faecalis, isolated from a spiced sausage; test: agar diffusion, inhibition halo; assay type: cell-based
Experimental: as §1, §4, §3

[21] = tested on: Bacillus megaterium, ATCC 33085; test: agar diffusion, inhibition halo; assay type: cell-based
Experimental: as §1, §4, §3

[22] = tested on: Escherichia coli, CECT 515; test: agar diffusion, inhibition halo; assay type: cell-based
Experimental: as §1, §4, §3

[23] = tested on: mold on the surface of the cheese; test: preservative activity on surface of cheese (PVA emulsion coating); conditions: fresh cheese, PVA emulsion with 2000 ppm pimaricin with 12000 ppm of potassium sorbate, diluted 1:1 with water, room temperature
Experimental: as §5
The amounts of PTS and pimaricin with potassium sorbate (12000 ppm) as shown in the corresponding table are added to emulsions of 1 kg of PVA. Said preparations are diluted 1:1 with water and pieces of fresh cheese without surface treatment are submerged therein. Once the pieces are dry, each one is introduced into a sealed recipient and is left at room temperature. They are monitored, and the occurrence of mold on their surface is observed on the days herein set forth:
Amounts of complex in α-cyclodextrin (sample 2) and β-cyclodextrin (sample 3) are added to emulsions of 1 kg of PVA such that the amount of active ingredient, PTS, is 5000 ppm. On the other hand a sample (no. 1) is prepared with pimaricin (2000 ppm) and potassium sorbate (12000 ppm). The same process is followed as in the previous case upon applying the products and the samples are monitored, the occurrence of mold on the surface of the cheese being observed according to the following table: […]

[24] = tested on: Rhizopus stolonifer CECT 2344; test: agar diffusion, inhibition halo; assay type: cell-based
Experimental: as §1, §2, §3

[25] = tested on: Trichoderma aureoviride CECT 20102; test: agar diffusion, inhibition halo; assay type: cell-based
Experimental: as §1, §2, §3

[26] = 250 ppm (second column headed 250)
[27] = in polyvinyl acetate emulsion, 2000 ppm
[28] = 4000 ppm (active ingredient, dose in ppm)
[29] = 6000 ppm (active ingredient, dose in ppm)
[30] = CECT2294, read-out: inhibition halo diameter

CCCCS[S+]([O-])CCCC (stereo not shown) [BTS, n-butyl n-butyl thiosulfinate]
inhibition halo diameter ([1]; 1000 ppm): 17 mm
zone of inhibition at 1000 ppm [2]: 67 mm
inhibition halo diameter ([3]; 1000 ppm): 45 mm
inhibition halo diameter [4]: 60 mm
inhibition halo diameter ([5]; 1000 ppm): 20 mm

CCCSS(=O)(=O)CCC [PTSO, Propyl Propylthiosulfonate]
inhibition halo diameter ([1]; 1000 ppm): 13 mm
zone of inhibition at 1000 ppm [2]: 65 mm
inhibition halo diameter ([3]; 1000 ppm): 55 mm
inhibition halo diameter [4]: 65 mm
inhibition halo diameter ([5]; 1000 ppm): 31 mm

C[C@@H]1C/C=C/C=C/C=C/C=C/[C@H](O[C@@H]2O[C@H](C)[C@@H](O)[C@H](N)[C@@H]2O)C[C@@H]2O[C@](O)(C[C@@H](O)C[C@H]3O[C@@H]3/C=C/C(=O)O1)C[C@H](O)[C@H]2C(=O)O [Pimaricin, pimaricin]
inhibition halo diameter ([6]; 62.5 ppm): 24 mm
inhibition halo diameter ([6]; 250 ppm): 28 mm
inhibition halo diameter [6, 26]: 28 mm
inhibition halo diameter ([6]; 500 ppm): 30 mm
inhibition halo diameter ([6]; 1000 ppm): 23 mm
inhibition halo diameter [7, 27]: 15 mm
inhibition halo diameter ([8]; 100 ppm): 26 mm
inhibition halo diameter ([8]; 1000 ppm): 26 mm
inhibition halo diameter [1, 27]: 13 mm
inhibition halo diameter ([9]; 62.5 ppm): 10 mm
inhibition halo diameter ([9]; 250 ppm): 11 mm
inhibition halo diameter [9, 26]: 10 mm
inhibition halo diameter ([9]; 500 ppm): 12 mm
inhibition halo diameter ([9]; 1000 ppm): 12 mm
inhibition halo diameter ([10]; 62.5 ppm): 10 mm
inhibition halo diameter ([10]; 250 ppm): 12 mm
inhibition halo diameter [10, 26]: 12 mm
inhibition halo diameter ([10]; 500 ppm): 14 mm
inhibition halo diameter ([10]; 1000 ppm): 16 mm
inhibition halo diameter ([11]; 100 ppm): 24 mm
inhibition halo diameter ([11]; 1000 ppm): 26 mm
inhibition halo diameter [11, 27]: 18 mm
inhibition halo diameter ([12]; 62.5 ppm): 13 mm
inhibition halo diameter ([12]; 250 ppm): 15 mm
inhibition halo diameter [12, 26]: 14 mm
inhibition halo diameter ([12]; 500 ppm): 16 mm
inhibition halo diameter ([12]; 1000 ppm): 18 mm
inhibition halo diameter ([13]; 62.5 ppm): 19 mm
inhibition halo diameter ([13]; 250 ppm): 19 mm
inhibition halo diameter [13, 26]: 19 mm
inhibition halo diameter ([13]; 500 ppm): 20 mm
inhibition halo diameter ([13]; 1000 ppm): 20 mm
inhibition halo diameter [13, 27]: 20 mm
inhibition halo diameter ([14]; 100 ppm): 14 mm
inhibition halo diameter ([14]; 1000 ppm): 15 mm
Visible occurrence of mold at [15]: 6 days
inhibition halo diameter ([3]; 62.5 ppm): 0 mm
inhibition halo diameter ([3]; 250 ppm): 0 mm
inhibition halo diameter [3, 26]: 0 mm
inhibition halo diameter ([3]; 500 ppm): 0 mm
inhibition halo diameter ([3]; 1000 ppm): 0 mm
inhibition halo diameter ([16]; 62.5 ppm): 0 mm
inhibition halo diameter ([16]; 250 ppm): 0 mm
inhibition halo diameter [16, 26]: 0 mm
inhibition halo diameter ([16]; 500 ppm): 0 mm
inhibition halo diameter ([16]; 1000 ppm): 0 mm
inhibition halo diameter ([17]; 100 ppm): 0 mm
inhibition halo diameter ([17]; 1000 ppm): 0 mm
inhibition halo diameter ([18]; 62.5 ppm): 0 mm
inhibition halo diameter ([18]; 250 ppm): 0 mm
inhibition halo diameter [18, 26]: 0 mm
inhibition halo diameter ([18]; 500 ppm): 0 mm
inhibition halo diameter ([18]; 1000 ppm): 0 mm
inhibition halo diameter ([19]; 100 ppm): 0 mm
inhibition halo diameter ([19]; 1000 ppm): 0 mm
inhibition halo diameter ([20]; 62.5 ppm): 0 mm
inhibition halo diameter ([20]; 250 ppm): 0 mm
inhibition halo diameter [20, 26]: 0 mm
inhibition halo diameter ([20]; 500 ppm): 0 mm
inhibition halo diameter ([20]; 1000 ppm): 0 mm
inhibition halo diameter ([21]; 62.5 ppm): 0 mm
inhibition halo diameter ([21]; 250 ppm): 0 mm
inhibition halo diameter [21, 26]: 0 mm
inhibition halo diameter ([21]; 500 ppm): 0 mm
inhibition halo diameter ([21]; 1000 ppm): 0 mm
inhibition halo diameter ([22]; 62.5 ppm): 0 mm
inhibition halo diameter ([22]; 250 ppm): 0 mm
inhibition halo diameter [22, 26]: 0 mm
inhibition halo diameter ([22]; 500 ppm): 0 mm
inhibition halo diameter ([22]; 1000 ppm): 0 mm
inhibition halo diameter ([5]; 62.5 ppm): 0 mm
inhibition halo diameter ([5]; 250 ppm): 0 mm
inhibition halo diameter [5, 26]: 0 mm
inhibition halo diameter ([5]; 500 ppm): 0 mm
inhibition halo diameter ([5]; 1000 ppm): 0 mm
Visible occurrence of mold at [23]: 10 to 15 days and 10 to 16 days

Oc1ccccc1-c1ccccc1 [o-Phenyl phenol]
inhibition halo diameter [7, 28]: 45 mm
inhibition halo diameter [7, 29]: 47 mm
inhibition halo diameter [24, 28]: 14 mm
inhibition halo diameter [24, 29]: 15 mm
inhibition halo diameter [25, 28]: 40 mm
inhibition halo diameter [25, 29]: 42 mm
zone of inhibition at 4000 ppm [2, 30]: 45 mm
zone of inhibition at 6000 ppm [2, 30]: 45 mm
